Measured values taken from US11634447B2 (priority 2012, dated 2023).

tested on: bacterial strain LF82 binding to the glycoprotein BSA-(Mannose)3; assay: Bacterial Binding Assay (BBA); type: cell-based, Escherichia coli; settings: read-out: Bacterial Binding Assay IC50, LF82/Luciferase strain binding to BSA-(Man)3 coated plates, luminescence
In short: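 Inhibition of LF82/luciferase E. coli adhesion is read as luminescence after washing off unbound cells. Compound and bacteria (10^7 per well) are co-incubated 40-75 min at room temperature on wells coated with 0.5-2 μg/mL BSA-(Man)3, with BSA-only wells as background; IC50 values derived.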

Row | Compound | IC50
1 | NC(=O)CCC(=O)c1c(C#C[C@H]2O[C@H](CO)[C@@H](O)[C@H](O)[C@@H]2O)ccc2c1C1(CCNCC1)c1cc(C#C[C@H]3O[C@H](CO)[C@@H](O)[C@H](O)[C@@H]3O)ccc1-2 [Compound 234, 4-[2,7-bis[2-[(2R,3S,4R,5S,6R)-3,4,5-trihydroxy-6-(hydroxymethyl)tetrahydropyran-2-yl]ethynyl]spiro[fluorene-9,4piperidine]-1yl]-4-oxo-butanamide] | 0.04 nM
2 | O=C(c1c(C#C[C@H]2O[C@H](CO)[C@@H](O)[C@H](O)[C@@H]2O)ccc2c1C1(CCNCC1)c1cc(C#C[C@H]3O[C@H](CO)[C@@H](O)[C@H](O)[C@@H]3O)ccc1-2)C1CC1(F)F (stereo partly drawn) [Compound 235, [2,7-bis[2-[(2R,3S,4R,5S,6R)-3,4,5-trihydroxy-6-(hydroxymethyl)tetrahydropyran-2-yl]ethynyl]spiro[fluorene-9,4piperidine]-1yl]-(2,2-difluorocyclopropyl)methanone] | 0.03 nM
3 | O=C(c1cnccn1)c1c(C#C[C@H]2O[C@H](CO)[C@@H](O)[C@H](O)[C@@H]2O)ccc2c1C1(CCNCC1)c1cc(C#C[C@H]3O[C@H](CO)[C@@H](O)[C@H](O)[C@@H]3O)ccc1-2 [Compound 236, [2,7-bis[2-[(2R,3S,4R,5S,6R)-3,4,5-trihydroxy-6-(hydroxymethyl)tetrahydropyran-2-yl]ethynyl]spiro[fluorene-9,4piperidine]-1yl]-pyrazin-2-yl-methanone] | 0.5 nM
4 | Cn1nccc1C(=O)c1c(C#C[C@H]2O[C@H](CO)[C@@H](O)[C@H](O)[C@@H]2O)ccc2c1C1(CCNCC1)c1cc(C#C[C@H]3O[C@H](CO)[C@@H](O)[C@H](O)[C@@H]3O)ccc1-2 [Compound 237, [2,7-bis[2-[(2R,3S,4R,5S,6R)-3,4,5-trihydroxy-6-(hydroxymethyl)tetrahydropyran-2-yl]ethynyl]spiro[fluorene-9,4piperidine]-1yl]-(2-methylpyrazol-3-yl)methanone] | 0.22 nM
5 | Cn1ccc(C(=O)c2c(C#C[C@H]3O[C@H](CO)[C@@H](O)[C@H](O)[C@@H]3O)ccc3c2C2(CCNCC2)c2cc(C#C[C@H]4O[C@H](CO)[C@@H](O)[C@H](O)[C@@H]4O)ccc2-3)n1 [Compound 238, [2,7-bis[2-[(2R,3S,4R,5S,6R)-3,4,5-trihydroxy-6-(hydroxymethyl)tetrahydropyran-2-yl]ethynyl]spiro[fluorene-9,4piperidine]-1yl]-(1-methylpyrazol-3-yl)methanone] | 0.09 nM
6 | Cc1cccc(C(=O)c2c(C#C[C@H]3O[C@H](CO)[C@@H](O)[C@H](O)[C@@H]3O)ccc3c2C2(CCNCC2)c2cc(C#C[C@H]4O[C@H](CO)[C@@H](O)[C@H](O)[C@@H]4O)ccc2-3)n1 [Compound 239, [2,7-bis[2-[(2R,3S,4R,5S,6R)-3,4,5-trihydroxy-6-(hydroxymethyl)tetrahydropyran-2-yl]ethynyl]spiro[fluorene-9,4piperidine]-1yl]-(6-methyl-2-pyridyl)methanone] | 0.35 nM
7 | O=C(CCn1cccn1)c1c(C#C[C@H]2O[C@H](CO)[C@@H](O)[C@H](O)[C@@H]2O)ccc2c1C1(CCNCC1)c1cc(C#C[C@H]3O[C@H](CO)[C@@H](O)[C@H](O)[C@@H]3O)ccc1-2 [Compound 240, 1-[2,7-bis[2-[(2R,3S,4R,5S,6R)-3,4,5-trihydroxy-6-(hydroxymethyl)tetrahydropyran-2-yl]ethynyl]spiro[fluorene-9,4piperidine]-1yl]-3-pyrazol-1-yl-propan-1-one] | 0.05 nM
8 | O=C(CN1CCCC1=O)c1c(C#C[C@H]2O[C@H](CO)[C@@H](O)[C@H](O)[C@@H]2O)ccc2c1C1(CCNCC1)c1cc(C#C[C@H]3O[C@H](CO)[C@@H](O)[C@H](O)[C@@H]3O)ccc1-2 [Compound 241, 1-[2-[2,7-bis[2-[(2R,3S,4R,5S,6R)-3,4,5-trihydroxy-6-(hydroxymethyl)tetrahydropyran-2-yl]ethynyl]spiro[fluorene-9,4piperidine]-1yl]-2-oxo-ethyl]pyrrolidin-2-one] | 0.03 nM
9 | O=C(c1c(C#C[C@H]2O[C@H](CO)[C@@H](O)[C@H](O)[C@@H]2O)ccc2c1C1(CCNCC1)c1cc(C#C[C@H]3O[C@H](CO)[C@@H](O)[C@H](O)[C@@H]3O)ccc1-2)[C@@H]1CCCO1 [Compound 242, [2,7-bis[2-[(2R,3S,4R,5S,6R)-3,4,5-trihydroxy-6-(hydroxymethyl)tetrahydropyran-2-yl]ethynyl]spiro[fluorene-9,4piperidine]-1yl]-[(2S)-tetrahydrofuran-2-yl]methanone] | 0.18 nM
10 | O=C1CC[C@H](C(=O)c2c(C#C[C@H]3O[C@H](CO)[C@@H](O)[C@H](O)[C@@H]3O)ccc3c2C2(CCNCC2)c2cc(C#C[C@H]4O[C@H](CO)[C@@H](O)[C@H](O)[C@@H]4O)ccc2-3)N1 [Compound 243, (5R)-5-[2,7-bis[2-[(2R,3S,4R,5S,6R)-3,4,5-trihydroxy-6-(hydroxymethyl)tetrahydropyran-2-yl]ethynyl]spiro[fluorene-9,4piperidine]-1carbonyl]pyrrolidin-2-one] | 0.22 nM
11 | O=C1CC[C@@H](C(=O)c2c(C#C[C@H]3O[C@H](CO)[C@@H](O)[C@H](O)[C@@H]3O)ccc3c2C2(CCNCC2)c2cc(C#C[C@H]4O[C@H](CO)[C@@H](O)[C@H](O)[C@@H]4O)ccc2-3)N1 [Compound 244, (5S)-5-[2,7-bis[2-[(2R,3S,4R,5S,6R)-3,4,5-trihydroxy-6-(hydroxymethyl)tetrahydropyran-2-yl]ethynyl]spiro[fluorene-9,4piperidine]-1carbonyl]pyrrolidin-2-one] | 0.24 nM
12 | Cn1cc(C(=O)c2c(C#C[C@H]3O[C@H](CO)[C@@H](O)[C@H](O)[C@@H]3O)ccc3c2C2(CCNCC2)c2cc(C#C[C@H]4O[C@H](CO)[C@@H](O)[C@H](O)[C@@H]4O)ccc2-3)cn1 [Compound 245, [2,7-bis[2-[(2R,3S,4R,5S,6R)-3,4,5-trihydroxy-6-(hydroxymethyl)tetrahydropyran-2-yl]ethynyl]spiro[fluorene-9,4piperidine]-1yl]-(1-methylpyrazol-4-yl)methanone] | 0.14 nM
